Measured values taken from ChEMBL document CHEMBL5620385, “Orally bioavailable styryl derivative of rohitukine-N-oxide inhibits CDK9/T1 and the growth of pancreatic cancer cells” (Eur J Med Chem, 2023).

Columns and labels:
MIA PaCa-2 [1] = assay: Induction of apoptosis in human MIA PaCa-2 cells assessed as apoptotic body formation incubated for 48 hrs by DAPI staining based analysis; assay type: functional, cell-based
HCT-116 [2] = assay: Antiproliferative activity against human HCT-116 cells assessed as cell growth inhibition at 10 uM incubated for 48 hrs by MTT assay relative to control; assay type: functional
MIA PaCa-2 [3] = assay: Induction of mitochondrial membrane potential loss in human MIA PaCa-2 cells incubated for 48 hrs by Rhodamine-123 dye based analysis; assay type: functional, cell-based
MIA PaCa-2 [4] = assay: Antiproliferative activity against human MIA PaCa-2 cells assessed as cell growth inhibition incubated for 48 hrs by MTT assay; assay type: functional
[5] = Clearance in BALB/c mouse at 30 mg/kg, po measured for 6 hrs by LC-MS/MS analysis; assay type: ADME, organism-based; conditions: in vivo
HCT-116 [6] = assay: Antiproliferative activity against human HCT-116 cells assessed as cell growth inhibition incubated for 48 hrs by MTT assay; assay type: functional
MIA PaCa-2 [7] = assay: Antiproliferative activity against human MIA PaCa-2 cells assessed as cell growth inhibition at 10 uM incubated for 48 hrs by MTT assay relative to control; assay type: functional
[8] = AUC(0 to t) in BALB/c mouse at 5 mg/kg, iv measured for 6 hrs by LC-MS/MS analysis; assay type: ADME, organism-based; conditions: in vivo
[9] = AUC(0 to infinity) in BALB/c mouse at 30 mg/kg, po measured for 6 hrs by LC-MS/MS analysis; assay type: ADME, organism-based; conditions: in vivo
[10] = Antiproliferative activity against HEK293 cells assessed as cell growth inhibition incubated for 48 hrs by MTT assay; assay type: toxicity, cell-based; conditions: human
MIA PaCa-2 [11] = assay: Induction of apoptosis in human MIA PaCa-2 cells assessed as chromatin condensation incubated for 48 hrs by DAPI staining based analysis; assay type: functional, cell-based
[12] = Metabolic stability in human liver microsomes assessed as drug metabolism at 10 uM measured after 30 mins in presence of NADPH by HPLC analysis; assay type: ADME, Microsome; conditions: read-out: Drug metabolism
[13] = Cmax in BALB/c mouse at 30 mg/kg, po measured for 6 hrs by LC-MS/MS analysis; assay type: ADME, organism-based; conditions: in vivo
[14] = Volume of distribution in BALB/c mouse at 30 mg/kg, po measured for 6 hrs by LC-MS/MS analysis; assay type: ADME, organism-based; conditions: in vivo
[15] = Antiproliferative activity against HEK293 cells assessed as cell growth inhibition at 10 uM incubated for 48 hrs by MTT assay relative to control; assay type: toxicity, cell-based; conditions: human
[16] = C0 in BALB/c mouse at 5 mg/kg, iv measured for 6 hrs by LC-MS/MS analysis; assay type: ADME, organism-based; conditions: in vivo
[17] = AUC(0 to infinity) in BALB/c mouse at 5 mg/kg, iv measured for 6 hrs by LC-MS/MS analysis; assay type: ADME, organism-based; conditions: in vivo
[18] = Clearance in BALB/c mouse at 5 mg/kg, iv measured for 6 hrs by LC-MS/MS analysis; assay type: ADME, organism-based; conditions: in vivo
[19] = Volume of distribution in BALB/c mouse at 5 mg/kg, iv measured for 6 hrs by LC-MS/MS analysis; assay type: ADME, organism-based; conditions: in vivo
[20] = Half life in BALB/c mouse at 5 mg/kg, iv measured for 6 hrs by LC-MS/MS analysis; assay type: ADME, organism-based; conditions: in vivo
[21] = Metabolic stability in mouse liver microsomes assessed as drug metabolism at 10 uM measured after 30 mins in presence of NADPH by HPLC analysis; assay type: ADME, Microsome; conditions: read-out: Drug metabolism
MIA PaCa-2 [22] = assay: Induction of intracellular ROS generation in human MIA PaCa-2 cells incubated for 48 hrs by DCFDA dye based analysis; assay type: functional, cell-based
CDK9/cyclin T1 = CDK9/cyclin T1 (Homo sapiens, UniProt P50750); assay: Inhibition of CDK9/cyclin T1 (unknown origin) by ADP-Glo assay; assay type: protein-complex assay
[23] = AUC(0 to t) in BALB/c mouse at 30 mg/kg, po measured for 6 hrs by LC-MS/MS analysis; assay type: ADME, organism-based; conditions: in vivo
CDK9/Cyclin K = CDK9/Cyclin K (Homo sapiens, UniProt P50750); assay: Inhibition of CDK9/cyclin K (unknown origin) by ADP-Glo assay; assay type: protein-complex assay
[24] = target: CDK9/Cyclin K (Homo sapiens) (UniProt P50750+O75909); assay: Inhibition of CDK9/cyclin K (unknown origin) at 10 uM by ADP-Glo assay relative to control; assay type: protein-complex assay
[25] = target: Cyclin-dependent kinase 7/ cyclin H (Homo sapiens) (UniProt P51946+P50613); assay: Inhibition of CDK7/cyclin H (unknown origin) at 10 uM by ADP-Glo assay relative to control; assay type: protein-complex assay
[26] = Tmax in BALB/c mouse at 30 mg/kg, po measured for 6 hrs by LC-MS/MS analysis; assay type: ADME, organism-based; conditions: in vivo
[27] = Half life in BALB/c mouse at 30 mg/kg, po measured for 6 hrs by LC-MS/MS analysis; assay type: ADME, organism-based; conditions: in vivo
[28] = target: Cyclin-dependent kinase 7/ cyclin H (Homo sapiens, UniProt P50613); assay: Inhibition of CDK7/cyclin H (unknown origin) by ADP-Glo assay; assay type: protein-complex assay
Sequence of Cyclin-dependent kinase 7/ cyclin H (P51946 whole entry): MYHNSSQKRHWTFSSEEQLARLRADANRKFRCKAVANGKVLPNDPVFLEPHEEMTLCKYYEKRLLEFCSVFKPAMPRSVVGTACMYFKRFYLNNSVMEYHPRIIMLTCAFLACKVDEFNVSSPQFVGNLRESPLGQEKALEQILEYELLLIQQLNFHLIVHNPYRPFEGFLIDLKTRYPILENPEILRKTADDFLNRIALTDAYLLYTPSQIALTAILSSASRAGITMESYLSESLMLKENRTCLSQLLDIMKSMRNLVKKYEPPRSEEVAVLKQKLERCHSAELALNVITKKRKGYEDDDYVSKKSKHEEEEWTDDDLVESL
Sequence of Cyclin-dependent kinase 7/ cyclin H (P50613 whole entry): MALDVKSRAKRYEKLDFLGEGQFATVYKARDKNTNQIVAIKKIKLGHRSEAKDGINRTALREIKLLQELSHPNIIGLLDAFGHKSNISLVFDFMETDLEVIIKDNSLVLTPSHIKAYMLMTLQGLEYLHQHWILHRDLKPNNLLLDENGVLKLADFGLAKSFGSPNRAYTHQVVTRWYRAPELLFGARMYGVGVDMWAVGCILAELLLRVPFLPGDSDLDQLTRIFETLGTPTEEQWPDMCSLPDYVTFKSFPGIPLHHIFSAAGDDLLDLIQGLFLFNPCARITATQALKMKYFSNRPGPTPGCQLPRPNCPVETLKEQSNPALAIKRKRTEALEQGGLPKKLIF

Sequence of CDK9/Cyclin K (P50750 whole entry): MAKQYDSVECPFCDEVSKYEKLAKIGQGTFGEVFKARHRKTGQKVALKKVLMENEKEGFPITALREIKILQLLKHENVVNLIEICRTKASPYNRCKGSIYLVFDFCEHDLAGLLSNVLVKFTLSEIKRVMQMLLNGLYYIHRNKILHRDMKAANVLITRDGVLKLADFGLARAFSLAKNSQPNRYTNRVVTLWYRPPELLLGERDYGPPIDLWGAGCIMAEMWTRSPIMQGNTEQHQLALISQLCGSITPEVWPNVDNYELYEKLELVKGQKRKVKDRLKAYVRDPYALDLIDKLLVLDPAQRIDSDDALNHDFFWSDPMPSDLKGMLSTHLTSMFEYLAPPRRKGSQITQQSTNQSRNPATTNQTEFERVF
Sequence of CDK9/Cyclin K (O75909 whole entry, further chain): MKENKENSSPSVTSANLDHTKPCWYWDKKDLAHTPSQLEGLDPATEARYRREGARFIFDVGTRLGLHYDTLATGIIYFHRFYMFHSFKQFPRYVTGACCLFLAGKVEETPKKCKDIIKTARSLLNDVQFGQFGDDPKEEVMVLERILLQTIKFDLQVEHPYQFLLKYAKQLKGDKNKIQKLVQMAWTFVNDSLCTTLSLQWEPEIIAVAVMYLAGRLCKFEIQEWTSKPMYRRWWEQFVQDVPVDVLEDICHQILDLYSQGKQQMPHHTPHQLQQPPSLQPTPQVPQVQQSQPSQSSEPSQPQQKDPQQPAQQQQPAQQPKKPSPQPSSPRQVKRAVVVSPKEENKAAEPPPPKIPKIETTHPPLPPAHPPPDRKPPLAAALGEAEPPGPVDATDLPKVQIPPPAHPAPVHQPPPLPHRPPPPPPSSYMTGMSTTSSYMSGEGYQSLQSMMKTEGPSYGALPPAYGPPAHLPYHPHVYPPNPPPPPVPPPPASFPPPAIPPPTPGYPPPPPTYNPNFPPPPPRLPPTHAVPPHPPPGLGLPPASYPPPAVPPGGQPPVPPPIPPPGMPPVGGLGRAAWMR
Sequence of CDK9/cyclin T1 (O60563 whole entry): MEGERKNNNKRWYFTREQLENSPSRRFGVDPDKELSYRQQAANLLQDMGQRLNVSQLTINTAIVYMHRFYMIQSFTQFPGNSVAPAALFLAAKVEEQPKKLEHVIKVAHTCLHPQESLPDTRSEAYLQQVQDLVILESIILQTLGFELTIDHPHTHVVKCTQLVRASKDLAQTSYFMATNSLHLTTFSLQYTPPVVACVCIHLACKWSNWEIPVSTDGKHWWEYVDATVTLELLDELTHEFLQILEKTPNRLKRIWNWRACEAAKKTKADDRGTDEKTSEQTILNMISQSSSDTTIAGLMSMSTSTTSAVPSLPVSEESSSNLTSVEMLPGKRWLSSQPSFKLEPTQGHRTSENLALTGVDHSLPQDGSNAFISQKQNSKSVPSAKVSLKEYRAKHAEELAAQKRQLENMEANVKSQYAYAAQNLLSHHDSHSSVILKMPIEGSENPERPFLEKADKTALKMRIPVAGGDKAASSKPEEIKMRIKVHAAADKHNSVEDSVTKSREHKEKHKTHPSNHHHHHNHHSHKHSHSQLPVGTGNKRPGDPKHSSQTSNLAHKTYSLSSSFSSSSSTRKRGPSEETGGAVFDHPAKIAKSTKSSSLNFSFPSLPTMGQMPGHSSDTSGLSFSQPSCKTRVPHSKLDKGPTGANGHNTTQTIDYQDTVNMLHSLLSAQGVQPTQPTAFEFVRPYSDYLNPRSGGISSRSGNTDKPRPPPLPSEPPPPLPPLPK
Sequence of CDK9/cyclin T1 (P50750 whole entry): as the sequence (P50750 whole entry) above

COc1cc(O)c2c(=O)cc(/C=C/c3c(F)cccc3Cl)oc2c1[C@H]1CC[N+](C)([O-])C[C@H]1O (stereo not given in full)
Activity (MIA PaCa-2 [1]): Dose-Dependent Effect
inhibition at 10 µM (HCT-116 [2]): 25.2%
Activity (MIA PaCa-2 [3]): Dose-Dependent Effect
GI50 (MIA PaCa-2 [4]): 5530 nM
CL/F [5]: 1250 mL/min/kg
GI50 (HCT-116 [6]): 2530 nM
inhibition at 10 µM (MIA PaCa-2 [7]): 24.9%
AUC(0-t) at 6 h [8]: 956 ng·h/mL
AUC(0-inf) [9]: 401 ng·h/mL
GI50 at 48 h [10]: 81500 nM
Activity (MIA PaCa-2 [11]): Dose-Dependent Effect
metabolised at 0.5 h, 10 µM [12]: 16%
Cmax [13]: 817 ng/mL
Vd [14]: 17 L/kg
inhibition at 48 h, 10 µM [15]: 14.9%
C0 at 6 h [16]: 19100 ng/mL
AUC(0-inf) [17]: 957 ng·h/mL
clearance [18]: 86.7 mL/min/kg
Vd [19]: 0.8 L/kg
half-life [20]: 6 min
metabolised at 0.5 h, 10 µM [21]: 16%
Activity (MIA PaCa-2 [22]): Dose-Dependent Effect
IC50 (CDK9/cyclin T1): 150 nM
AUC(0-t) at 6 h [23]: 400 ng·h/mL
IC50 (CDK9/Cyclin K): 2280 nM
inhibition [24]: 41.7%
inhibition [25]: 28.7%
Tmax [26]: 30 min
half-life [27]: 9.6 min
IC50 [28]: 540 nM
